Assay results reported in patent publication EP0231622B1, “Inhibition of the 5-lipoxygenase pathway” (priority 1985, dated 1987).
pIC50: −log10 of the molar value. Where two headings read alike, the source gives them in different places. Marks after values point to notes of the source that are not given here.

Legend:
[1] = tested on: Polymorphonuclear Leukocytes; assay: Mouse Carrageenan Peritonitis (PMN infiltration); format: in vivo, Balb/c mice
Description: (§1) In the following Examples where mice were used, they were male Balb/c mice (20-28 g), and where rats were used, they were male Lewis rats (180-210 g). All mice and rats were obtained from Charles River Breeding Laboratories, Kingston, N.Y. Within a single experiment, mice and rats were sex and age matched.
(§2) The compounds of Formula (IA) were used either as the free base or in the appropriate salt form. Levamisole was used as the hydrochloride salt. The compounds were homogenized in 0.5% tragacanth. Compounds were administered by gavage at the indicated dose in a final volume of 10 ml/kg. Nordihydroguaiaretic acid (NDGA) was solubilized in dimethylacetamide and diluted with olive oil for subcutaneous administration.
Mice were pretreated with either the test compound or vehicle one hour before the intraperitoneal injection of a 1.0% carrageenan suspension in saline (0.2 ml/ mouse). Mice were sacrificed by cervical dislocation two hours after injection, and 3.0 ml of phosphate buffered saline, without Ca⁺⁺ or Mg⁺⁺, was injected into the peritoneum. Following massage, a 2.0 ml aliquot of the lavage fluid was removed, and the total cell count determined on a Coulter counter and differential cell count determined by microscopic examination of Giesma-stained slides.

[2] = tested on: Arachidonic Acid-Induced Inflammation of the Mouse Ear; assay: Arachidonic acid-induced mouse ear inflammation; format: in vivo, Balb/c mice; conditions: for % Inhibition of Ear Swelling: Table 7A, NS = not significant; for % Change / Increase in Ear Thickness at 1 Hour (x 10⁻³ cm): Table 7, p.o.
Description: as §1, §2
Arachidonic acid in acetone (2 mg/20 ul) was applied to the inner surface of the left ear. The thickness of both ears was then measured with a dial micrometer one hour after treatment, and the data were expressed as the change in thickness (10⁻³ cm) between treated and untreated ears.
Test compounds were given orally in 0.5% tragacanth at the times indicated in the text prior to the topical application of arachidonic acid.
Parenteral administration of compound was accomplished by subcutaneous injection of solution as indicated.

5-LO = biological target: T1, 5-LO (Rattus norvegicus, UniProt P12527); assay: di-HETE production by RBL-1 high speed supernatant; format: biochemical; conditions: Table 9A; di-HETE production by RBL-1 high speed supernatant; read-out: 5-LO IC50
T1 construct: The activities of these enzymes in extracts of RBL-1 cells were assayed; host or cells: RBL-1 cells, disrupted by nitrogen cavitation; 10,000 x g or 100,000 x g supernatant
T1 sequence (P12527 1-673): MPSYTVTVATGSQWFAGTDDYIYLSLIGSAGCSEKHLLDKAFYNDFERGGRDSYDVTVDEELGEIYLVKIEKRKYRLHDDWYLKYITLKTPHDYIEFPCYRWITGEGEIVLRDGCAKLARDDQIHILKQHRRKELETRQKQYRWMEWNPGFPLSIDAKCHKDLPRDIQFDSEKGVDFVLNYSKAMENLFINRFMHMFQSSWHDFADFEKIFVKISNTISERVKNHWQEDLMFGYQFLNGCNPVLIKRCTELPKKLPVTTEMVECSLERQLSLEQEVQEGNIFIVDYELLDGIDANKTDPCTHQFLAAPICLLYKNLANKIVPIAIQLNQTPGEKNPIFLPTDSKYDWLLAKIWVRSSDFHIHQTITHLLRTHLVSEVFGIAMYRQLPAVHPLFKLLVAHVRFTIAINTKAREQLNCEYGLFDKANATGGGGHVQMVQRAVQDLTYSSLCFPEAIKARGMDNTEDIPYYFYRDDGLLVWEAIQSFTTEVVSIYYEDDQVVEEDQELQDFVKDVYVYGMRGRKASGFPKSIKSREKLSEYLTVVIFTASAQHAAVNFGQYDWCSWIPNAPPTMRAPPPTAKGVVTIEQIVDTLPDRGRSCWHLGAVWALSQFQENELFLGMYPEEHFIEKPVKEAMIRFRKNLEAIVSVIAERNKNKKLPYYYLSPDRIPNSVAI
Experimental: (§3) For in vitro experiments, compounds were dissolved at appropriate concentrations in ethanol or DMSO (dimethylsulfoxide) (final concentration <1.0%) and then diluted to final concentrations using the buffers indicated in the text.
(§4) The activities of these enzymes in extracts of RBL-1 cells were assayed using the method of Jakschik and Lee, Nature, 287, 51-52 (1980). RBL-1 cells were obtained from the American Type Culture Collection (#CRL 1378) and were grown at 37°C (5% CO₂ in air) in spinner culture in MEM supplemented with 10% heat inactivated fetal calf serum. Harvested cells were washed with 50 mM sodium phosphate buffer, pH 7.0, containing 1 mM EDTA and 0.1% gelatin, resuspended in fresh buffer (5 x 10⁷ cells/ml) and disrupted by nitrogen cavitation using the Parr bomb at 750 psi for 10 min. The broken cell extract was then centrifuged at 10,000 x g for 20 minutes and the supernatant centrifuged at 100,000 x g for 60 minutes. Aliquots (0.25 mls) of the supernatant were preincubated with or without drugs for 10 min, after which 10 ul CaCl₂ (50 mM) was added and the reaction was initiated with 2.5 ul of 2.5 mM arachidonic acid-1-¹⁴C (final concentration was […]; specific activity 20,000 dpm/nmole). After incubation for 3 min at 37°C, the reaction was terminated by addition of 2 volumes (0.5 ml) ice cold acetone and the sample was allowed to deproteinize on ice for 10 min prior to centrifugation at 1,000 x g for 10 min. The deproteinized supernatant was adjusted to pH 3.5 with 2N formic acid and extracted with 2 volumes of ice cold ethyl acetate. The extracted samples were dried under argon, redissolved in ethyl acetate and applied to Whatman LK5D thin layer chromatography (TLC) plates which were developed using the A-9 solvent system [organic phase of ethyl acetate: 2,2,5-trimethylpentane:acetic acid: water (110:50:20:10)] described by Hamberg and Samuelsson, J. Biol. Chem., 241, 257-263 (1966). Arachidonic acid, 5-HETE, di-HETE and PGD₂ were quantified with a Berthold LB 2832 autoscanner.
(§5) The 5-lipoxygenase and LTA₄ synthetase activities were further studied under the following conditions. An additional centrifugation of the RBL-1 supernatant was run at 100,000 x g for 60 min, to remove the particulate cyclooxygenase activity. Sample incubation was done under conditions similar to those described above, i.e., 2 mM CaCl₂ and 25 uM arachidonic acid-1-¹⁴C, however, with an incubation time of 5 min at […]. Under these conditions, only the 5-lipoxygenase pathway metabolites were detectable. The 5-HETE and di-HETEs were formed at a linear rate, and […] amounts of the arachidonic acid-1-¹⁴C substrate were utilized.

5-Lipoxygenase = biological target: T2, 5-Lipoxygenase (Rattus norvegicus, UniProt P12527); assay: 5-HETE production by RBL-1 high speed supernatant; format: biochemical; conditions: Table 8A; RBL-1 high speed supernatant
T2 construct: The activities of these enzymes in extracts of RBL-1 cells were assayed; host or cells: RBL-1 cells, disrupted by nitrogen cavitation; 10,000 x g or 100,000 x g supernatant
T2 sequence (P12527 1-673): T1 sequence (P12527 1-673)
Experimental: as §3, §4, §5

[3] = tested on: Production of PGE₂ by Mouse Peritoneal Exudate Cells; assay: PGE2 production by peritoneal macrophages; format: cell-based
Experimental: as §3
Mice were injected intraperitoneally with 350 »g Corynebacterium parvum and the peritoneal exudate cell population was harvested 12-14 days later by peritoneal lavage with cold phosphate-buffered saline, and resuspended in Eagles minimal essential medium supplemented with 5% fetal calf serum. […] Test compounds were added (100 ul) to bring the final volume to 1.0 ml. Lipopolysaccharide (5 »g/ml) was then added to stimulate PGE₂ synthesis. After incubation at 37°C for 2 hours, cell-free supernatants were harvested, placed in polypropylene tubes and frozen at -20°C until assayed for their PGE₂ content using a commercial radioimmunoassay kit. IC₅₀ is the concentration that inhibits 50% of control activity.

[4] = Table 2, Experiment 1, 12.5 mg/kg, p.o.
[5] = Table 2, Experiment 1, 25 mg/kg, p.o.
[6] = Table 2, Experiment 1, 50 mg/kg, p.o.
[7] = Macrophage, read-out: IC₅₀ production of PGE₂ by inflammatory macrophages
[8] = Table 2, Experiment 2, 50 mg/kg, s.c.

## CC(=O)OC[C@H]1O[C@@H]([S-])[C@H](OC(C)=O)[C@@H](OC(C)=O)[C@@H]1OC(C)=O.CCP(CC)CC.[Au+] [Auranofin]
[1]; Table 3, 2 (mg Au/kg), p.o.
  PMN x 10⁻⁵/ml (mean ± S.D.): 7.50 ± 1.57 x 10⁻⁵/ml

## CN(C)c1ccc(-c2c(-c3ccc(F)cc3)nc3n2CCS3)cc1 [Compound 10, 5-(4-N,N-Dimethylaminophenyl)-6-(4-fluorophenyl)-2,3-dihydroimidazo[2,1-b]thiazole]
[2]; 50 mg/kg s.c. or i.p.
  % Inhibition of Ear Swelling: 17* %
5-LO
  pIC50: 5.82
5-Lipoxygenase
  pIC50: 5.30

## Fc1ccc(-c2nc3n(c2-c2ccncc2)CCC3)cc1 [Compound 39, 2-(4-fluorophenyl)-3-(4-pyridyl)-6,7-dihydro-[5H]-pyrrolo [1,2-a]imidazole]
[2]; 50 mg/kg s.c. or i.p.
  % Inhibition of Ear Swelling: 93%
5-LO
  pIC50: 4.49
5-Lipoxygenase
  pIC50: 4.17

## COc1ccc(-c2nc3n(c2-c2ccncc2)CCC3)cc1 [Compound 40, 2-(4-methoxyphenyl)-3-(4-pyridyl)-6,7-dihydro-[5H]-pyrrolo [1,2-a]imidazole]
[2]; 50 mg/kg oral dosing (p.o.)
  % Inhibition of Ear Swelling: 83 (p.o.) %
5-LO
  pIC50: 5.00
5-Lipoxygenase
  pIC50: 4.80

## COc1ccc(-c2nc3n(c2-c2ccncc2)CC[S+]3[O-])cc1 (stereo not drawn) [Compound 41]
[2]; 50 mg/kg s.c. or i.p.
  % Inhibition of Ear Swelling: 45*** %

## [O-][S+]1CCn2c1nc(-c1ccncc1)c2-c1ccc(F)cc1 (stereo not drawn) [Compound 42]
[2]; 50 mg/kg s.c. or i.p.
  % Inhibition of Ear Swelling: 50*** %
5-LO
  pIC50: 4.22
5-Lipoxygenase
  pIC50: 4.00

## CSc1ccc(-c2nc3n(c2-c2ccc(F)cc2)CCS3)cc1 [Compound 47]
[2]; 50 mg/kg s.c. or i.p.
  % Inhibition of Ear Swelling: 22*** %

## CCOC(=O)N1C=CC(c2c(-c3ccc(F)cc3)nc3n2CCS3)C=C1 [Compound 48]
[2]; 50 mg/kg s.c. or i.p.
  % Inhibition of Ear Swelling: 25*** %
5-LO
  pIC50: 5.15
5-Lipoxygenase
  pIC50: 5.05

## O=C(c1ccccc1)N1C=CC(c2c(-c3ccc(F)cc3)nc3n2CCS3)C=C1 [Compound 49]
[2]; 50 mg/kg s.c. or i.p.
  % Inhibition of Ear Swelling: 15* %
5-LO
  pIC50: 4.28
5-Lipoxygenase
  pIC50: 4.14

## C[C@@H]1C[C@H]2[C@@H]3CCC4=CC(=O)C=C[C@]4(C)[C@@]3(F)[C@@H](O)C[C@]2(C)[C@@]1(O)C(=O)CO [Dexamethasone]
[2]; 25 mg/kg, pretreated at 2 hrs
  % Change: -35^c %
  Increase in Ear Thickness at 1 Hour (x 10⁻³ cm): 18.2 ± 4.1 x 10⁻³ cm
[1]; [4]
  % Change: -54^b %
  PMN x 10⁻⁵/ml (mean ± S.D.): 9.1 ± 2.0 x 10⁻⁵/ml
[1]; [5]
  % Change: -55^b %
  PMN x 10⁻⁵/ml (mean ± S.D.): 8.8 ± 2.6 x 10⁻⁵/ml
[1]; [6]
  % Change: -69^b %
  PMN x 10⁻⁵/ml (mean ± S.D.): 6.1 ± 1.5 x 10⁻⁵/ml

## CC(C)Cc1ccc(C(C)C(=O)O)cc1 (stereo not drawn) [Ibuprofen, reference compound]
[2]; 250 mg/kg
  % Change: +20^b %
  Increase in Ear Thickness at 1 Hour (x 10⁻³ cm): 30.8 ± 2.0 x 10⁻³ cm
[3]; [7]
  pIC50: 6.30
[3]; Peritoneal macrophage, Table 10, LPS-stimulated, C. parvum-elicited peritoneal exudate cells, read-out: IC₅₀ (»M) production of PGE₂
  pIC50: 6.30

## c1ccc([C@H]2CN3CCSC3=N2)cc1 [Levamisole]
[1]; Table 3, 100 mg/kg, p.o.
  % Change: -37^b %
  PMN x 10⁻⁵/ml (mean ± S.D.): 5.88 ± 2.70 x 10⁻⁵/ml

## CC(Cc1ccc(O)c(O)c1)C(C)Cc1ccc(O)c(O)c1 (stereo not drawn) [NDGA, Nordihydroguaiaretic acid]
[1]; [8]
  % Change: 41^c %
  PMN x 10⁻⁵/ml (mean ± S.D.): 5.7 ± 2.1 x 10⁻⁵/ml

## COc1ccc2cc([C@H](C)C(=O)O)ccc2c1 [Naproxen]
[3]; [7]
  pIC50: 5.74
[3]; Peritoneal macrophage, read-out: IC₅₀ (»M) production of PGE₂
  pIC50: 5.74
